Experimental data taken from US20100183754A1, “Extract and compound for blood pressure regulation” (Taipei Medical University, priority 2009, published 2010).

Legend:
[1] = test system: spontaneous hypertensive rats (SHRs); assay: 24-hour blood pressure test of SHRs after single oral administration; assay type: in vivo, rat; conditions: single oral administration 10 mg/kg, versus control fed distilled water
Procedure: The Vitis thunbergii var. taiwaniana extracts of the present invention were used in the in vivo blood pressure regulation assay. The present embodiment was performed on 24 heads of five- to six-week old male spontaneous hypertensive rats (SHRs). The rats were housed for 7 weeks and then used for the assay while they were about twelve- to thirteen-week old. The SHRs were randomly divided into experimental group (12 heads of SHRs) and control group (12 heads of SHRs). The rats of the experimental group were fed with the Vitis thunbergii var. taiwaniana extract obtained in example 1, and the rats of the control group were fed with distilled water for instead. After oral administration by feeding tube, the blood pressure of all SHRs was measured for a certain time interval.
Similarly, the hot water extract of the roots and stems of the Vitis thunbergii var. taiwaniana cultivated in field for 5 to 6 months, which was transferred from tissue culture plantlets, was used in a 24-hour blood pressure test, as shown in FIG. 7 (the rats of the control group were fed with distilled water).
Moreover, the blood pressure of the SHRs fed with (+)-vitisin A purified in example 5 was measured during 24 hours after single oral administration.

[2] = molecular target: ACE (Homo sapiens, UniProt P12821); assay: In vitro ACE inhibiting assay; assay type: biochemical; conditions: for ACE inhibiting activity (FIG. 11): purified in example 5, various concentrations
ACE, sequence (P12821 30-1306, species assumed): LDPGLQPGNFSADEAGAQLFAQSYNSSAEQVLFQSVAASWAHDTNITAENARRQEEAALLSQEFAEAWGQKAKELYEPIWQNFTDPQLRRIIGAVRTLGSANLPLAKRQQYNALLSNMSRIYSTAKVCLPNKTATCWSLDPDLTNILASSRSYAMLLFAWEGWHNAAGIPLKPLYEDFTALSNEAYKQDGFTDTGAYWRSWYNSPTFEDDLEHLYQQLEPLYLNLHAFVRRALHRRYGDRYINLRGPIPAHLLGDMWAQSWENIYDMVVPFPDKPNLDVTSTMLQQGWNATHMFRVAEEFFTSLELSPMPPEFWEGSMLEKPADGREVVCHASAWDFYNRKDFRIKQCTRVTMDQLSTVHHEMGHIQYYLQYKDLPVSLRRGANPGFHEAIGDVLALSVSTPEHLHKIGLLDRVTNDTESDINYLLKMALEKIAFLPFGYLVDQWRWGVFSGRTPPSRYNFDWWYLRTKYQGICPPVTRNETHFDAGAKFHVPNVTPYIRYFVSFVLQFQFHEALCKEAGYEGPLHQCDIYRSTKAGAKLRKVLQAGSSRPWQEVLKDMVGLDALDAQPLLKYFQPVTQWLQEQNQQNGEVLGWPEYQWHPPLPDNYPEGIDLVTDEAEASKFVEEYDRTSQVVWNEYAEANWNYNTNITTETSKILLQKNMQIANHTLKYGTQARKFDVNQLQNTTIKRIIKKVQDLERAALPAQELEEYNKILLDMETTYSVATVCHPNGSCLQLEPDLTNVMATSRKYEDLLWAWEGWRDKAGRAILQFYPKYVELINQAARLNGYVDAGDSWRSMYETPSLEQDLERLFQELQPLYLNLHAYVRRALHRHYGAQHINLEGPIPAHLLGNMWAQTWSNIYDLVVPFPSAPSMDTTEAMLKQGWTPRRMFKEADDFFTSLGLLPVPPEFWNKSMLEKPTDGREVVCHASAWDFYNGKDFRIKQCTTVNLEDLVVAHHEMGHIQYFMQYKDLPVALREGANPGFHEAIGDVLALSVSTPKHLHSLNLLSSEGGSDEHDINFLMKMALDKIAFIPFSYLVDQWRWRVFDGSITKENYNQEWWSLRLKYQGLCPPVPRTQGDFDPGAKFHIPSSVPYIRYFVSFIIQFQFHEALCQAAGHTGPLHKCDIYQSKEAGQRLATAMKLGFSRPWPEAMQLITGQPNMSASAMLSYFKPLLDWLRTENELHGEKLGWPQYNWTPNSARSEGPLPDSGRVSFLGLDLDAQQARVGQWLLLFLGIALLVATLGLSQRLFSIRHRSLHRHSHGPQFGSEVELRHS
Source text: Wherein, the data of TC-1 to TC-4 are obtained from the whole plant extracts of Vitis thunbergii var. taiwaniana cultured by various plant growth substrates, respectively.
Moreover, the hot water extract of the Vitis thunbergii var. taiwaniana tea powder obtained in example 2 is used to perform the same ACE inhibiting assay, as shown in FIG. 6. […] Method A: culturing the tissue culture plantlet for 30 days, replacing the old culture medium with new culture medium, and then culturing the plantlet for another 60 days; in which the plantlet were cultured for 90 days. Method B: culturing the tissue culture plantlet for 30 days, directly adding the new culture medium onto the old culture medium, and then culturing for another 60 days; in which the plantlet were cultured for 90 days.
Various concentration of (+)-vitisin A and ampelopsin C purified in example 5 were used to perform ACE inhibiting activity assay.

Structure (SMILES)	blood pressure of SHRs in the period of 24 hours (FIG. 12) [1]	ACE inhibiting activity (FIG. 11) [2]	IC50 ([2]; purified in example 5, FIG. 11)
Oc1ccc([C@H]2c3c(O)cc(O)cc3[C@H]3c4c(cc(O)cc4[C@@H]2c2cc(/C=C/c4cc(O)cc5c4[C@H](c4cc(O)cc(O)c4)[C@@H](c4ccc(O)cc4)O5)ccc2O)O[C@@H]3c2ccc(O)cc2)cc1 [(+)-vitisin A]	decreases significantly	obviously have ACE inhibiting activity	–
Oc1ccc([C@H]2c3c(O)cc4c5c3[C@@H]([C@H](c3ccc(O)cc3)c3c(O)cc(O)cc3[C@H]5[C@H](c3ccc(O)cc3)O4)[C@@H]2c2cc(O)cc(O)c2)cc1 [ampelopsin C]	–	obviously have ACE inhibiting activity	18.1 µM
